Measured values reported in ChEMBL document CHEMBL3091339 (J Med Chem, 2013).
Activity calls are given as the source filed them.

Key:
[1] = tested on: Mus musculus; assay: Anticonvulsant activity in CD-1 mouse assessed as protection against maximal electroshock-induced tonic extension of hind limbs at 100 mg/kg, po after 2 hrs; assay type: functional, organism-based; parameters: dose 100 mg/kg; conditions: Hindlimb
[2] = tested on: Mus musculus; assay: Anticonvulsant activity in CD-1 mouse assessed as protection against maximal electroshock-induced tonic extension of hind limbs at 300 mg/kg, ip after 0.5 hrs; assay type: functional, organism-based; parameters: dose 300 mg/kg; conditions: Hindlimb
[3] = tested on: Mus musculus; assay: Anticonvulsant activity in CD-1 mouse assessed as protection against maximal electroshock-induced tonic extension of hind limbs at 100 mg/kg, po after 0.5 hrs; assay type: functional, organism-based; parameters: dose 100 mg/kg; conditions: Hindlimb
[4] = tested on: Mus musculus; assay: Anticonvulsant activity in CD-1 mouse assessed as protection against maximal electroshock-induced tonic extension of hind limbs at 300 mg/kg, po after 2 hrs; assay type: functional, organism-based; parameters: dose 300 mg/kg; conditions: Hindlimb
[5] = tested on: Mus musculus; assay: Anticonvulsant activity in CD-1 mouse assessed as protection against maximal electroshock-induced tonic extension of hind limbs at 300 mg/kg, po after 0.5 hrs; assay type: functional, organism-based; parameters: dose 300 mg/kg; conditions: Hindlimb
[6] = tested on: Mus musculus; assay: Anticonvulsant activity in intravenous PTZ-induced CF-1 mouse assessed as increase in seizure threshold for clonus at 182 mg/kg, po treated for 15 mins prior to PTZ-challenge relative to control; assay type: functional
[7] = tested on: Mus musculus; assay: Anticonvulsant activity in intravenous PTZ-induced CF-1 mouse assessed as increase in seizure threshold for twitch at 182 mg/kg, po treated for 15 mins prior to PTZ-challenge relative to control; assay type: functional
[8] = Neurotoxicity in po dosed Sprague-Dawley rat by rotarod test; assay type: toxicity, organism-based; conditions: in vivo
[9] = target: Carbonic anhydrase 2 (Homo sapiens, UniProt P00918)
Description: Inhibition of human carbonic anhydrase 2 by CO2 hydration assay

[10] = Volume of distribution at steady state in beagle dog at 2 mg/kg, iv; assay type: ADME, organism-based, Canis lupus familiaris; parameters: dose 2 mg/kg, route intravenous; conditions: in vivo, read-out: Vdss
[11] = Clearance in beagle dog at 2 mg/kg, iv; assay type: ADME, organism-based, Canis lupus familiaris; parameters: dose 2 mg/kg, route intravenous; conditions: in vivo
[12] = AUC in beagle dog at 10 mg/kg, po; assay type: ADME, organism-based, Canis lupus familiaris; parameters: dose 10 mg/kg, route oral; conditions: plasma
[13] = Half life in beagle dog at 10 mg/kg, po; assay type: ADME, organism-based, Canis lupus familiaris; parameters: dose 10 mg/kg, route oral; conditions: in vivo
[14] = tested on: Canis familiaris; assay: Oral bioavailability in beagle dog at 10 mg/kg; assay type: ADME, organism-based, Canis lupus familiaris; conditions: in vivo
[15] = Cmax in beagle dog at 10 mg/kg, po; assay type: ADME, organism-based, Canis lupus familiaris; parameters: dose 10 mg/kg, route oral; conditions: in vivo
[16] = Clearance in rat at 2 mg/kg, iv; assay type: ADME, organism-based; parameters: dose 2 mg/kg, route intravenous; conditions: in vivo
[17] = Volume of distribution at steady state in rat at 2 mg/kg, iv; assay type: ADME, organism-based; parameters: dose 2 mg/kg, route intravenous; conditions: in vivo, read-out: Vdss
[18] = Half life in rat at 10 mg/kg, po; assay type: ADME, organism-based; parameters: dose 10 mg/kg, route oral; conditions: in vivo
[19] = tested on: Rattus norvegicus; assay: Oral bioavailability in rat at 10 mg/kg; assay type: ADME, organism-based; conditions: in vivo
[20] = Cmax in rat at 10 mg/kg, po; assay type: ADME, organism-based; parameters: dose 10 mg/kg, route oral; conditions: in vivo
[21] = tested on: Liver microsome; assay: Drug metabolism in human liver microsomes assessed as hydroxylation metabolite formation by LC-MS/MS analysis; assay type: ADME
[22] = target: Sodium-dependent dopamine transporter (Homo sapiens) (UniProt Q01959); assay: Binding affinity to dopamine transporter (unknown origin)
[23] = target: T1, 5-hydroxytryptamine receptor 2C (Homo sapiens) (UniProt P28335); assay: Binding affinity to 5HT2C receptor (unknown origin)
T1 sequence (whole entry): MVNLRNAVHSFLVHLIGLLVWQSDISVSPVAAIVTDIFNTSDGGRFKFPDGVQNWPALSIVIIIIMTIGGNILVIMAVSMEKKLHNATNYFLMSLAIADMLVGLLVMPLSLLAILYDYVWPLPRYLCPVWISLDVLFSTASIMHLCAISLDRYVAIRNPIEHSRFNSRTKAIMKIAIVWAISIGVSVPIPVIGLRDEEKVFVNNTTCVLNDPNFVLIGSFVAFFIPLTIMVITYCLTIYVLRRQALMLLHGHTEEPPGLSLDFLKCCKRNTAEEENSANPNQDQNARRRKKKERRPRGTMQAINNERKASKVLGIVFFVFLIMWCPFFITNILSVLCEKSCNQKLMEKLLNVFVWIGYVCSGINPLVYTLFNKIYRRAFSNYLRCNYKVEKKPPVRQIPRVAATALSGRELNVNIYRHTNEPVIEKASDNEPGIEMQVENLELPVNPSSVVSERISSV

[24] = target: Histamine H1 receptor (Homo sapiens) (UniProt P35367); assay: Inhibition of histamine H1 receptor (unknown origin) at 10 uM relative to control
[25] = species on record: Homo sapiens; assay: Binding affinity to chloride channel (unknown origin) at 10 uM
[26] = species on record: Homo sapiens; assay: Binding affinity to central-type benzodiazepine receptor (unknown origin) at 10 uM
[27] = species on record: Homo sapiens; assay: Binding affinity to GABA (unknown origin) at 10 uM
[28] = target: Voltage-dependent N-type calcium channel subunit alpha-1B (Rattus norvegicus) (UniProt Q02294); assay: Inhibition of rat Cav2.2-mediated calcium flux expressed in HEK cells at 100 uM at 0.07 Hz by whole-cell patch-clamp assay relative to control; assay type: cell-based; conditions: HEK293
[29] = target: Voltage-dependent N-type calcium channel subunit alpha-1B (Rattus norvegicus) (UniProt Q02294); assay: Inhibition of rat Cav2.2-mediated calcium flux expressed in HEK cells at 100 uM at 5 Hz by whole-cell patch-clamp assay relative to control; assay type: cell-based; conditions: HEK293
[30] = target: Sodium channel protein type 2 subunit alpha (Rattus norvegicus, UniProt P04775); assay: Inhibition of rat Nav1.2 expressed in CHL1610 cells at -67 mV after 2 to 3 mins by whole-cell patch-clamp assay; assay type: cell-based
[31] = target: Sodium channel protein type 2 subunit alpha (Rattus norvegicus) (UniProt P04775); assay type: cell-based; conditions: CHL1610
[32] = Neurotoxicity in rat by muscle tone test; assay type: toxicity, organism-based, Muscle tissue; conditions: in vivo
[33] = Neurotoxicity in rat by positional sense test; assay type: toxicity, organism-based; conditions: in vivo
[34] = tested on: Rattus norvegicus; assay: Anticonvulsant activity in ip dosed Sprague-Dawley rat hippocampal kindling model assessed as reduction in global seizures treated 15 for mins post suprathreshold-stimulation; assay type: functional, organism-based; conditions: Hippocampus
[35] = tested on: Rattus norvegicus; assay: Anticonvulsant activity in ip dosed Sprague-Dawley rat hippocampal kindling model assessed as effect on after discharge duration treated 15 for mins post suprathreshold-stimulation; assay type: functional, organism-based; conditions: Hippocampus
[36] = tested on: Mus musculus; assay: Anticonvulsant activity in intravenous PTZ-induced CF-1 mouse assessed as increase in seizure threshold for clonus at […], ip treated for 15 mins prior to PTZ-challenge relative to control; assay type: functional
[37] = tested on: Mus musculus; assay: Anticonvulsant activity in intravenous PTZ-induced CF-1 mouse assessed as increase in seizure threshold for twitch at […], ip treated for 15 mins prior to PTZ-challenge relative to control; assay type: functional
[38] = target: Carbonic anhydrase 1 (Homo sapiens, UniProt P00915); assay: Inhibition of carbonic anhydrase 1 (unknown origin)
[39] = target: T2, Voltage-dependent N-type calcium channel subunit alpha-1B (Rattus norvegicus, UniProt Q02294)
Description: Inhibition of rat Cav2.2-mediated calcium flux expressed in HEK cells by FDSS assay

[40] = target: T2, Voltage-dependent N-type calcium channel subunit alpha-1B; remark: listed apart in the source
Description: Inhibition of rat Cav2.2-mediated calcium flux expressed in HEK cells at 0.07 Hz by whole-cell patch-clamp assay

[41] = in vivo; conditions: beagle, dog, po, 10 mg/kg
[42] = in vivo; conditions: rat, po, 10 mg/kg
[43] = target: Sodium channel protein type 2 subunit alpha (Rattus norvegicus) (UniProt P04775); conditions: CHL1610
[44] = tested on: Rattus norvegicus; assay: Anticonvulsant activity in ip dosed Sprague-Dawley rat hippocampal kindling model assessed as suppression of seizure activity treated 15 for mins post suprathreshold-stimulation; assay type: functional, organism-based; conditions: Hippocampus
[45] = species on record: Mus musculus; assay: animal or person; conditions: CF-1, Hindlimb, po, 2 h
Description: Anticonvulsant activity in po dosed CF-1 mouse assessed as protection against maximal electroshock-induced tonic extension of hind limbs measured at 2 hrs

[46] = species on record: Mus musculus
Description: Anticonvulsant activity in po dosed CF-1 mouse assessed as protection against maximal electroshock-induced tonic extension of hind limbs measured at 1 hr

Chain of Voltage-dependent N-type calcium channel subunit alpha-1B (Rattus norvegicus) (Q02294 whole entry, looked up): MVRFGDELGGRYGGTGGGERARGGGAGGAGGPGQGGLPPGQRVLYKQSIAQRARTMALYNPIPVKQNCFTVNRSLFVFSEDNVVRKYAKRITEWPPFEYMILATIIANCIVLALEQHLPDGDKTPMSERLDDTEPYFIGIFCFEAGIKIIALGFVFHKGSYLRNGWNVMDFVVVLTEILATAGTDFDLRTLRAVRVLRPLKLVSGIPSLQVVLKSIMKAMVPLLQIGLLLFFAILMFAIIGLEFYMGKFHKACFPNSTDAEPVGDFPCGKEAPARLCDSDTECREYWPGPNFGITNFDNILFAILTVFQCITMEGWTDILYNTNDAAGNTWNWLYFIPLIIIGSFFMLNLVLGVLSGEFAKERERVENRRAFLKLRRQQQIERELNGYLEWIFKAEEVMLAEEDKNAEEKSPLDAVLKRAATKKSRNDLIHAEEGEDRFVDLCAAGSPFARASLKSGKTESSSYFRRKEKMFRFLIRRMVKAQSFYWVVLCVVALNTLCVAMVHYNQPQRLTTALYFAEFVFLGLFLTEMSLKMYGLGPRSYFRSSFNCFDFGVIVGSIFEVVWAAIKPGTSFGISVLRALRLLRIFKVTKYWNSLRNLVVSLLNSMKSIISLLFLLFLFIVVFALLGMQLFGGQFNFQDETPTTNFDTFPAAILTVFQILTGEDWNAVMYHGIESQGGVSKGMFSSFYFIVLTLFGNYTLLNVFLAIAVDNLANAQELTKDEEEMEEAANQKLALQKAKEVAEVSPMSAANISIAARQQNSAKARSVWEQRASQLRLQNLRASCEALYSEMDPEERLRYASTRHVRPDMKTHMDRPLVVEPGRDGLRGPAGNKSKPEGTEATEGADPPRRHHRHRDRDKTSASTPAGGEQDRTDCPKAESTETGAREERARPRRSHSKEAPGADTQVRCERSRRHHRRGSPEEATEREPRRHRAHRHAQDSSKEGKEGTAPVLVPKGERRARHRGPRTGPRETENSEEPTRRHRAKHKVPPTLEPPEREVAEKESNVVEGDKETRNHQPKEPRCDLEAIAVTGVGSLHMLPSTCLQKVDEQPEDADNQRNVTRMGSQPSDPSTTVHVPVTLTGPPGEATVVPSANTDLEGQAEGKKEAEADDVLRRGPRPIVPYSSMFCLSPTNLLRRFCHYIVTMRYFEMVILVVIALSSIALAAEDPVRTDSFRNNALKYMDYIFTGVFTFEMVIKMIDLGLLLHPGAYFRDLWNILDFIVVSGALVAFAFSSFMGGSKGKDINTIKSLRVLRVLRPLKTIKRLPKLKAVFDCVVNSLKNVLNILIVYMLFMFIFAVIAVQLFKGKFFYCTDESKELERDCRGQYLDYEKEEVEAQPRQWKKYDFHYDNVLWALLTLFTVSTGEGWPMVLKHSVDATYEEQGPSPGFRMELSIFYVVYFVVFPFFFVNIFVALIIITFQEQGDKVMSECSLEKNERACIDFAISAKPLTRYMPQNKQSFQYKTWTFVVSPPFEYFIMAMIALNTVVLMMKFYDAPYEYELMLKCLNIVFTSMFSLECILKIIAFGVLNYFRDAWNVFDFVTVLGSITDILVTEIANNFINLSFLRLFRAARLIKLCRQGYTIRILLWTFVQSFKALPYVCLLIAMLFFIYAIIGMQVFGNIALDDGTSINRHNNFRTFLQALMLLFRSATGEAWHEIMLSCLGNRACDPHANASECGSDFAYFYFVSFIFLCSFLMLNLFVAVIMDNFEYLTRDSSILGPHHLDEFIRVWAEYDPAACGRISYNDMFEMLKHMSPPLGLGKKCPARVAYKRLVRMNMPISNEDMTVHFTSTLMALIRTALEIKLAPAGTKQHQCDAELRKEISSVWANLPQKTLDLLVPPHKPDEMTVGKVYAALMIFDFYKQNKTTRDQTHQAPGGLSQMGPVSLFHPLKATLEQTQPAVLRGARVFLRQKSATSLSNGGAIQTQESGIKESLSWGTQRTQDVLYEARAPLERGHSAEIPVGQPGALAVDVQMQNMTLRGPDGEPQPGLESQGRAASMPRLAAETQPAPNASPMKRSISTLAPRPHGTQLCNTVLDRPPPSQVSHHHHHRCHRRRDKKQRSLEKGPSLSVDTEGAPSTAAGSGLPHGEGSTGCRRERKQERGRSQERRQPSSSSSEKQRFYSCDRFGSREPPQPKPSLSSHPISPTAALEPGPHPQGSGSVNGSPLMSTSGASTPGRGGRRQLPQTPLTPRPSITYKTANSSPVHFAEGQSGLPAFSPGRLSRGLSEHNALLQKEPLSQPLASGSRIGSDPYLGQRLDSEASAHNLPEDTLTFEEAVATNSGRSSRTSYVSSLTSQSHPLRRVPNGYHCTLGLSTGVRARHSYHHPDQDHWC
T2 sequence (Q02294 whole entry): as the sequence (Q02294 whole entry, looked up) above
Chain of Carbonic anhydrase 1 (P00915 whole entry): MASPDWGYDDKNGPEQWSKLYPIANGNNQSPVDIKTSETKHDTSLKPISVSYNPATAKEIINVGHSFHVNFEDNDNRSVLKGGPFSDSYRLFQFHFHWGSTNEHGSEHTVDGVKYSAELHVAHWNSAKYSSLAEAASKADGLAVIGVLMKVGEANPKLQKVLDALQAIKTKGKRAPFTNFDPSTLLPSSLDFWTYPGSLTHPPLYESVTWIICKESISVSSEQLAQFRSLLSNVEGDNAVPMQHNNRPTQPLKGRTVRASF
Chain of Sodium channel protein type 2 subunit alpha (Rattus norvegicus) (P04775 whole entry, looked up): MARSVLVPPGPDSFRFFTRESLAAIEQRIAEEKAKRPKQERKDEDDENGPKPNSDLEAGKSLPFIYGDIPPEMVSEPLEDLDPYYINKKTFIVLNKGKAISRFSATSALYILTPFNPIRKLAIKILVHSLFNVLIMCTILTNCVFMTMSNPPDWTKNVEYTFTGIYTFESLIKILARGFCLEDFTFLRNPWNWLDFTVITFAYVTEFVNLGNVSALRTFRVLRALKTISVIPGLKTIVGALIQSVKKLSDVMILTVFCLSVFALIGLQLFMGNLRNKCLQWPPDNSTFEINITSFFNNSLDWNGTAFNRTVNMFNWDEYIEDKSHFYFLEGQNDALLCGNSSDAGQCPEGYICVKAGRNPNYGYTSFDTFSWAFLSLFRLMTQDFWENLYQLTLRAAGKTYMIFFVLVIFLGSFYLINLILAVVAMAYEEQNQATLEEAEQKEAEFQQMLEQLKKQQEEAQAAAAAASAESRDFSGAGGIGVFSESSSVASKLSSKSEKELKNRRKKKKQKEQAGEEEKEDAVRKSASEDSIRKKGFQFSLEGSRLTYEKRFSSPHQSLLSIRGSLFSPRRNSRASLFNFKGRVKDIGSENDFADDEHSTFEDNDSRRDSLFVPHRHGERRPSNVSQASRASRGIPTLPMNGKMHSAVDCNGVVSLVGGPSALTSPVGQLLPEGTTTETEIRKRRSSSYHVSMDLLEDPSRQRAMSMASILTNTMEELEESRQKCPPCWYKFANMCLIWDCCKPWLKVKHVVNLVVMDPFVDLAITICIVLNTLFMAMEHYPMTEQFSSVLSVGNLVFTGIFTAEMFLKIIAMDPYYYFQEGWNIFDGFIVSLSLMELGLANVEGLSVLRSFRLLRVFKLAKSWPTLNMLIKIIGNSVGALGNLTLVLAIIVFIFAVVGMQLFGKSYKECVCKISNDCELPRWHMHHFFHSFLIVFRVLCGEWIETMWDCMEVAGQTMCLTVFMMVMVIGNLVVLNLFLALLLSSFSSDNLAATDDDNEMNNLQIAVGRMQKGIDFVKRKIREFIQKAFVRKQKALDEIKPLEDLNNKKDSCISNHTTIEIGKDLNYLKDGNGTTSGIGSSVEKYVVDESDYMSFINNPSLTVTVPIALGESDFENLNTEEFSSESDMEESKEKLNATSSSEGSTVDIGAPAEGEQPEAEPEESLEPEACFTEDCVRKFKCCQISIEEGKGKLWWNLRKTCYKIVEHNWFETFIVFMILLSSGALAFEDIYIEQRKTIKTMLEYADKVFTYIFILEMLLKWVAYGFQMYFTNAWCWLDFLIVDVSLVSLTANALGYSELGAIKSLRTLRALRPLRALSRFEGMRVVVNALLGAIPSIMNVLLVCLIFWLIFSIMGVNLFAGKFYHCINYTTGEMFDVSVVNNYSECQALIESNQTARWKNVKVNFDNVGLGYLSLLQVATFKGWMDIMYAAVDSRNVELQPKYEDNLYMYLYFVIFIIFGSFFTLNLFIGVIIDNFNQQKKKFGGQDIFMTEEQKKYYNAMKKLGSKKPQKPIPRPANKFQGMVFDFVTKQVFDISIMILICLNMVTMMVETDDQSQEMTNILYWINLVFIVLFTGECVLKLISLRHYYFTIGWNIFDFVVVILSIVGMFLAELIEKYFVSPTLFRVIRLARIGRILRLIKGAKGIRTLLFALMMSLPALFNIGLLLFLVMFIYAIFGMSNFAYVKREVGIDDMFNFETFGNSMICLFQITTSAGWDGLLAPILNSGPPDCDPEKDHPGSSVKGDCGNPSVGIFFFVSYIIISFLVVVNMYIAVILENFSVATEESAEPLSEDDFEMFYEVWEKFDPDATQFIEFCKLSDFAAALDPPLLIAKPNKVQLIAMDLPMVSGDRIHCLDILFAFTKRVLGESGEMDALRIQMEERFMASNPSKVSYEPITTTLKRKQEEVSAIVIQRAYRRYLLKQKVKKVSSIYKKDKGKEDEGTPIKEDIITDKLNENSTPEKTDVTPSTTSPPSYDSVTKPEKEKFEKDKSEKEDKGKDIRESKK
Chain of Histamine H1 receptor (Homo sapiens) (P35367 whole entry): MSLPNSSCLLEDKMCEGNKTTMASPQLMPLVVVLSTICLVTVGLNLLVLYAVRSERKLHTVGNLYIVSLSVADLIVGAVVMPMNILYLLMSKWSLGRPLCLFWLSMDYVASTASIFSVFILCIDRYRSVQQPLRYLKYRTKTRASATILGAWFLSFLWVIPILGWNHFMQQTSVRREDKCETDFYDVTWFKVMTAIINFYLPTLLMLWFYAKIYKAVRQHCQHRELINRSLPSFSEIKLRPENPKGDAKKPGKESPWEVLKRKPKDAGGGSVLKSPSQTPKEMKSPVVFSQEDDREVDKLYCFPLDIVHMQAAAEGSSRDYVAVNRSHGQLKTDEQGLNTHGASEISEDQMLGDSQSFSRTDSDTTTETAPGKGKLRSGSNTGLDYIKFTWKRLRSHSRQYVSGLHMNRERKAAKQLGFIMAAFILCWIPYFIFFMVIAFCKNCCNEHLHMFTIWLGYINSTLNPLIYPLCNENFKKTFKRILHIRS

NS(=O)(=O)NCC1Oc2ccccc2O1
Activity [1]: inactive
Activity [2]: Active
Activity [3]: Active

NS(=O)(=O)NCCC1COc2ccccc2O1 (configuration not stated)
Activity [4]: inactive
Activity [5]: Active
Activity [1]: inactive
Activity [3]: inactive

NS(=O)(=O)NC[C@H]1COc2c(F)cccc2O1
Activity [4]: Active
Activity [1]: inactive

NS(=O)(=O)NC[C@H]1COc2cc(Br)ccc2O1
Activity [4]: Active
Activity [5]: inactive

NS(=O)(=O)NC[C@H]1COc2cc(Cl)c(Cl)cc2O1
Activity [3]: inactive

NS(=O)(=O)NC[C@H]1COc2cc(F)ccc2O1
Activity [4]: Active

NS(=O)(=O)NC[C@H]1COc2cccc(Cl)c2O1
Activity [1]: inactive

NS(=O)(=O)NCC1COc2ccccc2O1 (racemic)
Activity [6]: 59%
Activity [7]: 41%
TD50 [8]: 182 mg/kg
Activity [2]: Active

CN(C)S(=O)(=O)NCC1COc2ccccc2O1 (racemic)
Activity [4]: inactive
IC50 [9]: > 1000 µM

CN(CC1COc2ccccc2O1)S(N)(=O)=O (racemic)
Activity [5]: Active

NS(=O)(=O)NC[C@H]1COc2cc(Cl)ccc2O1 [JNJ-26489112]
Vd [10]: 0.63 L/kg
clearance [11]: 0.5 mL/min/kg
AUC [12]: 212 µg·h/mL
half-life [13]: 20 h
F [14]: 83%
Cmax [15]: 11500 ng/mL
clearance [16]: 1.6 mL/min/kg
Vd [17]: 0.39 L/kg
half-life [18]: 8.2 h
F [19]: 95%
Cmax [20]: 9090 ng/mL
Drug metabolism [21]: Active
INH [22]: 16 µM
INH [23]: 29 µM
inhibition [24]: 23%
inhibition [25]: inactive
inhibition [26]: inactive
inhibition [27]: inactive
inhibition [28]: 37%
inhibition [29]: 53%
IC50 [30]: 36 µM
inhibition [31]: inactive
NOAEL [32]: 500 mg/kg
NOAEL [33]: 500 mg/kg
Activity [34]: Active
Activity [35]: inactive
Activity [36]: 232%
Activity [37]: 80%
IC50 [38]: 18 µM
Ki [38]: 2.2 µM
Activity [4]: Active
Activity [3]: inactive
IC50 [39]: 34 µM
IC50 [40]: 70 µM
Tmax [41]: 0.917 h
Tmax [42]: 0.883 h
inhibition [43]: Dose-dependent effect

O=C1NC(=O)C(c2ccccc2)(c2ccccc2)N1 [PHENYTOIN]
Activity [44]: Active
ED50 [45]: 9 mg/kg

CC1(C)O[C@@H]2[C@@H](CO[C@@]3(COS(N)(=O)=O)OC(C)(C)O[C@@H]23)O1 [TOPIRAMATE]
Activity [44]: inactive
ED50 [46]: 43.8 mg/kg
